ChEMBL document CHEMBL4028801, “A multifactorial approach to hepatobiliary transporter assessment enables improved therapeutic compound development” (Toxicol Sci, 2013)

Legend:
Bile salt export pump = Bile salt export pump (Homo sapiens, UniProt O95342); assay: Inhibition of human BSEP overexpressed in Sf9 cell membrane vesicles assessed as uptake of [3H]-taurocholate in presence of ATP measured after 15 to 20 mins by membrane vesicle transport assay; type: ADME, cell-based
Homo sapiens = assay: Drug concentration at steady state in human at 20 to 40 mg, iv QD after 24 hrs; type: ADME, organism-based; settings: in vivo
[1] = target: T1, ATP-binding cassette sub-family C member 4 (Homo sapiens, UniProt O15439); assay: Inhibition of human MRP4 overexpressed in Sf9 cell membrane vesicles assessed as uptake of [3H]-estradiol-17beta-D-glucuronide in presence of ATP and GSH measured after 20 mins by membrane vesicle transport assay; type: ADME, cell-based
T1 sequence (O15439 whole entry): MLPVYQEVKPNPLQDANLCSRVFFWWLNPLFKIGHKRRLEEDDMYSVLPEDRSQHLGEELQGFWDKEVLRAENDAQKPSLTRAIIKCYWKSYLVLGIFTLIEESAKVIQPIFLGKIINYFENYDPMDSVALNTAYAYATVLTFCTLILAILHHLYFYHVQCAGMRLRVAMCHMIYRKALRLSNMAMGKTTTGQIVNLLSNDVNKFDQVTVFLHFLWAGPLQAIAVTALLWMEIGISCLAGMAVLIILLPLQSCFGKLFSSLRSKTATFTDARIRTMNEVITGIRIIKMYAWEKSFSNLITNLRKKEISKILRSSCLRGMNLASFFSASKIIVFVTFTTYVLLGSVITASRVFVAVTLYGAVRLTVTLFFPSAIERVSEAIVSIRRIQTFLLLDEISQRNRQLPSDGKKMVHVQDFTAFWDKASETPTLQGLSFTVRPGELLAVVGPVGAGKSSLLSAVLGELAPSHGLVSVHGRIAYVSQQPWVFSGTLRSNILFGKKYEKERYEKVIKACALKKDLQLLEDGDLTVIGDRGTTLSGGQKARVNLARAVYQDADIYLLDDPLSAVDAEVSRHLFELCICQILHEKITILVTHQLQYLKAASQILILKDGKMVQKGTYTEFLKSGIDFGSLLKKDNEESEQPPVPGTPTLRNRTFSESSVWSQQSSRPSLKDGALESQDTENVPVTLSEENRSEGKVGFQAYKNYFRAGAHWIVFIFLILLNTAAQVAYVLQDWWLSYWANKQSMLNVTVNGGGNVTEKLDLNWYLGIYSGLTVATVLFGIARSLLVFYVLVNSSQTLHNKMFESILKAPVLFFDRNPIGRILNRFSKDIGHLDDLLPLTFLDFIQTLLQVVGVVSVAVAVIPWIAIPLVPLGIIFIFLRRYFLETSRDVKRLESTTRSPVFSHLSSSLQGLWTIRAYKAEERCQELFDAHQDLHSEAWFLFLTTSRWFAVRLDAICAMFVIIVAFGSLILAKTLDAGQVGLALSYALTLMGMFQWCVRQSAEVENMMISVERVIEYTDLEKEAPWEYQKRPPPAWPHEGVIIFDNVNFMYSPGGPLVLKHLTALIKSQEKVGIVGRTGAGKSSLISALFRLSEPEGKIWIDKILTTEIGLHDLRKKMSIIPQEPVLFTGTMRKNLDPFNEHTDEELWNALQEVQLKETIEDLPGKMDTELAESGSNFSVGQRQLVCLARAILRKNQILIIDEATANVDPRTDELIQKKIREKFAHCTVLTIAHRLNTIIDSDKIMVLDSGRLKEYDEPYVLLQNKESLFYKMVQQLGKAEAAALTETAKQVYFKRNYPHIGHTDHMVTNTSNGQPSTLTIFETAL

[2] = target: ATP-binding cassette sub-family C member 2 (Homo sapiens, UniProt Q92887); assay: Inhibition of human MRP2 overexpressed in Sf9 cell membrane vesicles assessed as uptake of [3H]-estradiol-17beta-D-glucuronide in presence of ATP and GSH measured after 20 mins by membrane vesicle transport assay
[3] = AUC in human at 20 to 40 mg, iv QD after 24 hrs; type: ADME, organism-based; settings: in vivo
[4] = target: ATP-binding cassette sub-family C member 3 (Homo sapiens, UniProt O15438); assay: Inhibition of human MRP3 overexpressed in Sf9 insect cell membrane vesicles assessed as uptake of [3H]-estradiol-17beta-D-glucuronide in presence of ATP and GSH measured after 10 mins by membrane vesicle transport assay; type: ADME, cell-based
[5] = Ratio of drug concentration at steady state in human at 20 to 40 mg, iv QD after 24 hrs to IC50 for human BSEP overexpressed in Sf9 insect cells; type: ADME, organism-based; settings: in vivo
[6] = Ratio of drug concentration at steady state in human at 20 to 80 mg, po QD after 24 hrs to IC50 for human MRP4 overexpressed in Sf9 insect cells; type: ADME, organism-based; settings: in vivo
[7] = AUC in human at 20 to 80 mg, po QD after 24 hrs; type: ADME, organism-based; settings: in vivo
[8] = Ratio of drug concentration at steady state in human at 20 to 80 mg, po QD after 24 hrs to IC50 for human BSEP overexpressed in Sf9 insect cells; type: ADME, organism-based; settings: in vivo
[9] = Drug concentration at steady state in human at 20 to 80 mg, po QD after 24 hrs; type: ADME, organism-based; settings: in vivo, read-out: Css
[10] = Ratio of drug concentration at steady state in human at 20 to 80 mg, po QD after 24 hrs to IC50 for human MRP3 overexpressed in Sf9 insect cells; type: ADME, organism-based; settings: in vivo
[11] = Ratio of drug concentration at steady state in human at 400 mg, po BID after 12 hrs to IC50 for human BSEP overexpressed in Sf9 insect cells; type: ADME, organism-based; settings: in vivo
[12] = AUC in human at 400 mg, po BID after 12 hrs; type: ADME, organism-based; design: time < 12 hr, dose 400 mg, route oral; settings: in vivo
[13] = Drug concentration at steady state in human at 400 mg, po BID after 12 hrs; type: ADME, organism-based; settings: in vivo, read-out: Css
[14] = AUC in human at 15 mg, po QD for 14 days after 24 hrs; type: ADME, organism-based; design: dose 15 mg, time < 24 hr, route oral; settings: in vivo
[15] = Drug concentration at steady state in human at 15 mg, po QD for 14 days after 24 hrs; type: ADME, organism-based; settings: in vivo, read-out: Css
[16] = Ratio of drug concentration at steady state in human at 15 mg, po QD for 14 days after 24 hrs to IC50 for human BSEP overexpressed in Sf9 insect cells; type: ADME, organism-based; settings: in vivo
[17] = Drug concentration at steady state in alopecia patient at 1 mg, po QD after 24 hrs; type: ADME, organism-based; settings: human, in vivo, read-out: Css
[18] = Ratio of drug concentration at steady state in human in benign prostate hyperplasia patient at 5 mg, po QD after 24 hrs to IC50 for human MRP4 overexpressed in Sf9 insect cells; type: ADME, organism-based; settings: in vivo
[19] = AUC in alopecia patient at 1 mg, po QD after 24 hrs; type: ADME, organism-based; design: time < 24 hr, dose 1 mg, route oral; settings: human, in vivo
[20] = AUC in benign prostate hyperplasia patient at 5 mg, po QD after 24 hrs; type: ADME, organism-based; design: time < 24 hr, dose 5 mg, route oral; settings: male, human, in vivo
[21] = Ratio of drug concentration at steady state in human in alopecia patient at 1 mg, po QD after 24 hrs to IC50 for human MRP4 overexpressed in Sf9 insect cells; type: ADME, organism-based; settings: in vivo
[22] = Ratio of drug concentration at steady state in human in benign prostate hyperplasia patient at 5 mg, po QD after 24 hrs to IC50 for human BSEP overexpressed in Sf9 insect cells; type: ADME, organism-based; settings: in vivo
[23] = Ratio of drug concentration at steady state in human in alopecia patient at 1 mg, po QD after 24 hrs to IC50 for human BSEP overexpressed in Sf9 insect cells; type: ADME, organism-based; settings: in vivo
[24] = Drug concentration at steady state in benign prostate hyperplasia patient at 5 mg, po QD after 24 hrs; type: ADME, organism-based; settings: male, human, in vivo, read-out: Css

Chain of ATP-binding cassette sub-family C member 3 (O15438 whole entry): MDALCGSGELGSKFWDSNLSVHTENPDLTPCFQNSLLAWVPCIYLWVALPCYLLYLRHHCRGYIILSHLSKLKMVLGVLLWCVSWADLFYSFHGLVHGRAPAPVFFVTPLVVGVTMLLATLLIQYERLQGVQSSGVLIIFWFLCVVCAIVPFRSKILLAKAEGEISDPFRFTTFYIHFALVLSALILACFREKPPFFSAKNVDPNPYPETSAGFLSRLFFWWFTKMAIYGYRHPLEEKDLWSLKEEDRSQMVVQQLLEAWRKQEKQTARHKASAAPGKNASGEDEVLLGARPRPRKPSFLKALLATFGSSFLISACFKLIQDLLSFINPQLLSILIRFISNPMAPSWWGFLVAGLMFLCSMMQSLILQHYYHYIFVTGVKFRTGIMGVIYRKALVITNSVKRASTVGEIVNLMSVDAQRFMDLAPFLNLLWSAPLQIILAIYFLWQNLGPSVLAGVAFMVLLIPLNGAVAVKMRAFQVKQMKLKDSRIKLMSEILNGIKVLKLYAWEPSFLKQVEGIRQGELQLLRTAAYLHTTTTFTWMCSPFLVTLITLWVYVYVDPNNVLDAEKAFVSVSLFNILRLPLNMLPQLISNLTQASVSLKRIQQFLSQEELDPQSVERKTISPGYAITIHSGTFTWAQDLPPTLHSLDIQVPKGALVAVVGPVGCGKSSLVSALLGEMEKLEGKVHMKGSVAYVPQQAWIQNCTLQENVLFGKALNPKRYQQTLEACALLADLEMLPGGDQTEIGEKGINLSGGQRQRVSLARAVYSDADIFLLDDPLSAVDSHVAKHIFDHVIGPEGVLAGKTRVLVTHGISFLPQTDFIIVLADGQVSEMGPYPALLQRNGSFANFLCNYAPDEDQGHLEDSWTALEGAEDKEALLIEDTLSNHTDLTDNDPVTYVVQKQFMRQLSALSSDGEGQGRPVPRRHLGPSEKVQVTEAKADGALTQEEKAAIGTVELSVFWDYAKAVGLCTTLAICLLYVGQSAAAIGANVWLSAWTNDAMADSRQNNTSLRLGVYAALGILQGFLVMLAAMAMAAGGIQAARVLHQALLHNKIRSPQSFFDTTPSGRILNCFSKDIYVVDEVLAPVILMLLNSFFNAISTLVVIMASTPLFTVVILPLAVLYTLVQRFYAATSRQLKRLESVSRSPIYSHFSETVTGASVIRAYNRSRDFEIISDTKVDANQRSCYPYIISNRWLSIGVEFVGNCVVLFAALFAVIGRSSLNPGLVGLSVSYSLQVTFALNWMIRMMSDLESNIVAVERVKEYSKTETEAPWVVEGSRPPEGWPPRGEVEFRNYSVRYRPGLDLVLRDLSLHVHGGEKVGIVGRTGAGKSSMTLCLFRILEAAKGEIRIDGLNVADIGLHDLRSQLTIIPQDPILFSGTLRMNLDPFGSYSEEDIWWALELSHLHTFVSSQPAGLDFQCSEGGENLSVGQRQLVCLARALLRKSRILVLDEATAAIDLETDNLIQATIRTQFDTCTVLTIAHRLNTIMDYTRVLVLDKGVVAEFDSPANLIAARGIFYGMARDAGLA
Chain of ATP-binding cassette sub-family C member 2 (Q92887 whole entry): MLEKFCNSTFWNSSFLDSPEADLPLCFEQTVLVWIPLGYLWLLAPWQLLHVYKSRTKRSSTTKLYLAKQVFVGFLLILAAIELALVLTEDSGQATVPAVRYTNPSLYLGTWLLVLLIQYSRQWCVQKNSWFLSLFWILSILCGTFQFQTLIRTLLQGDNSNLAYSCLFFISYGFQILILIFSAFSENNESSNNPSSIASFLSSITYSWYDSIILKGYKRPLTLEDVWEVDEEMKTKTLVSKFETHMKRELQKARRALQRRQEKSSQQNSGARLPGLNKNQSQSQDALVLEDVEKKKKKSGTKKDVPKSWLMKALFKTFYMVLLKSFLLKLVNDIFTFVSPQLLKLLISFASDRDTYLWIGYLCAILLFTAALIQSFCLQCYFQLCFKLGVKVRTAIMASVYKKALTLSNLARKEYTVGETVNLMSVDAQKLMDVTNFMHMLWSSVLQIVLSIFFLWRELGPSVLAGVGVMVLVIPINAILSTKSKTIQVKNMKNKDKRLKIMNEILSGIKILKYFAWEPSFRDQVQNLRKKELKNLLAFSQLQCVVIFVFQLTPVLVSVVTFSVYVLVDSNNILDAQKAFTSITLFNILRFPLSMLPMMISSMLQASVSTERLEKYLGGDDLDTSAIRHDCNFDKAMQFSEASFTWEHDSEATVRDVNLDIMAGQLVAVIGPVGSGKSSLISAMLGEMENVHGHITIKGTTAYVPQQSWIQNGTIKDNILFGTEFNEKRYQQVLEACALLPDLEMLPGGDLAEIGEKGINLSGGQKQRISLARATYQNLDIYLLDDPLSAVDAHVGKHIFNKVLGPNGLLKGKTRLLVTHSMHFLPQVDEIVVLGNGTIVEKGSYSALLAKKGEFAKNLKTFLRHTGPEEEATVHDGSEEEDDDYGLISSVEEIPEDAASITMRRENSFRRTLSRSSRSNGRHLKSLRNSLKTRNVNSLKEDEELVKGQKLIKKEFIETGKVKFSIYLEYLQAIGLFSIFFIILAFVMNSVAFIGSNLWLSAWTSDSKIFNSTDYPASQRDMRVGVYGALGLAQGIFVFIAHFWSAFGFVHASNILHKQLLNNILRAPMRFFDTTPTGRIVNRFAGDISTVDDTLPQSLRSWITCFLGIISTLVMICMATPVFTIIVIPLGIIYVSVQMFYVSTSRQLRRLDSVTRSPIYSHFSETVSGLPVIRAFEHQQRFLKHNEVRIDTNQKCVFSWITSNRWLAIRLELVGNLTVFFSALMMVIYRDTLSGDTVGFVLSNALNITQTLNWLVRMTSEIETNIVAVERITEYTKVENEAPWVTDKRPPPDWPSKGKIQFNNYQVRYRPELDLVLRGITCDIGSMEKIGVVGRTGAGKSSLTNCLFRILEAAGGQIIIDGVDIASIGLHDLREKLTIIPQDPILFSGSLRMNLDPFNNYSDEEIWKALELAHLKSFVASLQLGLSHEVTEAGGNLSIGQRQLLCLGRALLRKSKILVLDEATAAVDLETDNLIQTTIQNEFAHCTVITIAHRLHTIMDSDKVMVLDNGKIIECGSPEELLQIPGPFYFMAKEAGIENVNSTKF
Chain of Bile salt export pump (O95342 whole entry): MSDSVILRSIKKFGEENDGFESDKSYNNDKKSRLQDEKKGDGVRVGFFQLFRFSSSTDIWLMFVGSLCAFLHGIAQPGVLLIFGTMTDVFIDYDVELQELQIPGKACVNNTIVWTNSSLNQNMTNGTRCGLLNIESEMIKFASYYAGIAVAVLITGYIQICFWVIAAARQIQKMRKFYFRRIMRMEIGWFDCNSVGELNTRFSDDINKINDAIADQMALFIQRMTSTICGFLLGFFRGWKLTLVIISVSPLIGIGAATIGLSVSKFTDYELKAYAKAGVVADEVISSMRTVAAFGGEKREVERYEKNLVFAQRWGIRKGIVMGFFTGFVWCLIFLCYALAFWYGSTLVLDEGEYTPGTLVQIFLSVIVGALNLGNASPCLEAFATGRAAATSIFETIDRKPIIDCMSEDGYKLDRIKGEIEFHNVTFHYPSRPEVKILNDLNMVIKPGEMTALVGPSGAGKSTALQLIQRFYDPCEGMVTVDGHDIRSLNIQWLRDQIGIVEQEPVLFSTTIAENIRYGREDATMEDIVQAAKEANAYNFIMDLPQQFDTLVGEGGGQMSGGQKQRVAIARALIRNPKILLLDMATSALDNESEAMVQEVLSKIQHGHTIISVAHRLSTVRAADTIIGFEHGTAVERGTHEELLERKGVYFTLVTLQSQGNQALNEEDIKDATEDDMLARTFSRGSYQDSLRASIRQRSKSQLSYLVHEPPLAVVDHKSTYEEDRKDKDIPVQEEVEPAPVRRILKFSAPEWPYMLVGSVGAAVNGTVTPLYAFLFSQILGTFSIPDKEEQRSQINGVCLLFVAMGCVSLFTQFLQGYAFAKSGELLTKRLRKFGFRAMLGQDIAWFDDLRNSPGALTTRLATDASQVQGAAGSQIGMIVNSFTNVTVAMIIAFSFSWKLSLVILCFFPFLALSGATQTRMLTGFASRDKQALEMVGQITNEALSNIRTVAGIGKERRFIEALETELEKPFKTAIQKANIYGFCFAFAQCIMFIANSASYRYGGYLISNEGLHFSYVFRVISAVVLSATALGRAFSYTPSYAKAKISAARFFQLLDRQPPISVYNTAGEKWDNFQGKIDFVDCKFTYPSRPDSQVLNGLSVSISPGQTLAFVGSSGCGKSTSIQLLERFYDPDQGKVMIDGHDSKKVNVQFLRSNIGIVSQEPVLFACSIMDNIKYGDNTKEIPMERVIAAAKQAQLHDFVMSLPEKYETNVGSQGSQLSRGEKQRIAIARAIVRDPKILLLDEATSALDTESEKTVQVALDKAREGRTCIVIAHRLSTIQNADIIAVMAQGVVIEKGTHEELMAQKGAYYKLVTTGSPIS

## COc1ccc2[nH]c([S+]([O-])Cc3ncc(C)c(OC)c3C)nc2c1 (centres undefined) [OMEPRAZOLE]
Bile salt export pump
  IC50: 99 µM
Homo sapiens
  Css: 468.2 nM
[1]
  IC50: > 133 µM
[2]
  IC50: > 133 µM
[3]
  AUC at 24 h: 11.2 µM·h
[4]
  IC50: > 133 µM
[5]
  Ratio: 0.005

## CCCc1nc2c(C)cc(-c3nc4ccccc4n3C)cc2n1Cc1ccc(-c2ccccc2C(=O)O)cc1
[6]
  Ratio: 0.004
[7]
  AUC at 24 h: 3.57 µM·h
[1]
  IC50: 36 µM
[8]
  Ratio: 0.009
[9]
  concentration at 24 h: 149 nM
[10]
  Ratio: 0.002
[2]
  IC50: > 133 µM
[4]
  IC50: 60 µM

## CCCCc1oc2ccc(NS(C)(=O)=O)cc2c1C(=O)c1ccc(OCCCN(CCCC)CCCC)cc1.Cl [DRONEDARONE HYDROCHLORIDE]
Bile salt export pump
  IC50: 73.9 µM
[11]
  Ratio: 0.002
[12]
  AUC at 12 h: 1.6 µM·h
[1]
  IC50: > 133 µM
[2]
  IC50: > 133 µM
[13]
  concentration at 12 h: 133 nM
[4]
  IC50: > 133 µM

## COc1cc(NC(C)CCCN)c2ncccc2c1 (centres undefined) [PRIMAQUINE]
[14]
  AUC at 24 h: 1.71 µM·h
[15]
  concentration at 24 h: 71 nM
[1]
  IC50: > 133 µM
[2]
  IC50: > 133 µM
[16]
  Ratio: 0.002
[4]
  IC50: > 133 µM

## CC(C)(C)NC(=O)[C@H]1CC[C@H]2[C@@H]3CC[C@H]4NC(=O)C=C[C@]4(C)[C@H]3CC[C@]12C [FINASTERIDE]
[17]
  concentration at 24 h: 41 nM
[18]
  Ratio: 0.001
[1]
  IC50: 51 µM
[19]
  AUC at 24 h: 0.993 µM·h
[2]
  IC50: > 133 µM
[20]
  AUC at 24 h: 0.993 µM·h
[4]
  IC50: > 133 µM
[21]
  Ratio: 0.001
[22]
  Ratio: 0.00147
[23]
  Ratio: 0.00147
[24]
  concentration at 24 h: 41 nM
